Test results reported in patent US10674725B1, “Herbicidal composition and method for controlling weeds” (SUMITOMO CHEMICAL COMPANY, LIMITED, priority 2019, dated 2020).

Columns and labels:
soybean plant = conditions: soybean at 2 trifoliate leaf stage, spot-on 2nd trifoliate leaf; dicamba-biproamine 40,000 ng/plant (acid equivalent), PPO inhibitor 20 ng/plant where added; 6 days after treatment; visually estimated
corn plant = conditions: corn at 2.5-leaf stage, spot-on 2nd leaf; dicamba-biproamine 4,000,000 ng/plant (acid equivalent), PPO inhibitor 2 ng/plant where added; 6 days after treatment
Procedure: An aqueous dilution of trifludimoxazin was prepared by mixing one part of a trifludimoxazin formulation (obtained by mixing a predetermined amount of trifludimoxazin with acetone containing 2% of Tween 20) with 4 parts of water, so as to have a concentration of 0.1 ppm of trifludimoxazin.
6 days after the spot-on treatments, an angle of inclination of the main tiller of the corn plant from the vertical line was measured as a quantitative measure of dicamba corn injury of leaning tiller.

## CN(CCCN)CCCN.COc1c(Cl)ccc(Cl)c1C(=O)O [Dicamba-biproamine, dicamba-biproamine]
Soybean plant
  Leaf area (% of non-treated): 40%
Corn plant
  Angle of inclination of the main tiller from the vertical line: 90 degrees
